Here are results for 20 molecules from paper PMC6930638, “The Masked Polar Group Incorporation (MPGI) Strategy in Drug Design: Effects of Nitrogen Substitutions on Combretastatin and Isocombretastatin Tubulin Inhibitors” (Molecules, 2019).

Like-named read-outs stand apart in the source and are kept apart here. Bounds are passed on as bounds.

Data set [1] deals with HeLa cervix epithelioid carcinoma. The data set is described as follows: MTT cell antiproliferative assay, HeLa. Particulars: Homo sapiens, 72 h. The class given is cell-based. The procedure:
(§1) The in vitro antiproliferative activity of the synthesized compounds was evaluated by a colorimetric reaction, using the MTT reagent. They were tested against three different human tumor cell lines: HeLa cervix epithelioid carcinoma, HT-29 colon adenocarcinoma, and MCF-7 breast adenocarcinoma. […] Moving the alkylamino substituent from a para to a meta position with respect to the bridge results in potency reduction, except for the phenstatin analogue 1f. However, the introduction of a nitrogen atom to form 2-dimethylaminopyridine derivatives entails a loss of activity, both for phenstatin analogues (1b, 2b), while for isocombretastatins, it only involves a 2–3 times potency decrease (3b). For combretastatins, it implies an improvement in the cytotoxicity values down to tenths of nanomolar (8b). […] On the other hand, the best 2-dimethylaminopyridine was combretastatin 8b. All ammonium salts derivatives were not cytotoxic at micromolar concentrations.
(§2) HeLa (human cervical carcinoma) and MCF-7 (human breast carcinoma) cell lines were cultured in Dulbecco’s Modified Eagles Medium (DMEM) supplemented with 2 mM L-glutamine (Lonza-Cambrex, Karlskoga, Sweden), 10% (v/v) heat inactivated fetal bovine serum (HIFBS) (Lonza-Cambrex) and 100 μg/mL streptomycin-100 IU/mL penicillin (Lonza-Cambrex) at 37 °C in humidified 95% air and 5% CO2. HT-29 (human colon carcinoma) cells were cultured at 37 °C in complete RPMI 1640 medium containing 2 mM L-glutamine, 10% (v/v) HIFBS and 100 μg/mL streptomycin-100 IU/mL penicillin in humidified 95% air and 5% CO2 atmosphere.
(§3) The effect of the different compounds on the proliferation of human cell lines was determined by using the MTT (3-[4,5-dimethylthiazol-2-yl]-2,5-diphenyltetrazolium bromide) reagent (MTT Thiazolyl Blue Tetrazolium Bromide, Sigma-Aldrich, St. Louis, MO, USA) dissolved in PBS 5 mg/mL. Cell viability was evaluated seeding 100 µL of cells in exponential growth phase with appropriate cell line concentration (1.5 × 10^4 HeLa and MCF-7 cells/mL and 3 × 10^4 HT-29 cells/mL) in complete medium in 96-well plates at 37 °C and 5% CO2. After 24 h incubation to allow cells to attach to the plates the ligands were added at different concentrations from 10^−5 to 10^−9 M. The effect on the proliferation was evaluated 72 h post-treatment by adding the MTT reagent (10 µL/well) to a final concentration of 0.5 mg/mL and the plate was further incubated for another 3 h. After this period, the supernatant was removed, the MTT violet crystals formed on the bottom of each well were dissolved in DMSO (100 µL/well) and subsequently, the absorbance of the color complex was read at 570 nm using a multi-well plate reader. Compounds were dissolved in dimethyl sulfoxide (DMSO) and the final solvent concentrations never exceeded 0.5% (v/v). The control wells included treated cells with 0.5% (v/v) DMSO and the positive control. Measurements were performed in triplicate, and each experiment was repeated three times. […] Nonlinear curves fitting the experimental data were carried out for each compound.

Data set [2] concerns MCF-7 breast adenocarcinoma. Put plainly: MTT cell antiproliferative assay, MCF-7. Particulars: Homo sapiens, MCF7, 72 h. In kind it is cell-based. As for the experimental part: as §1, §2, §3
In data set [3] the test system is Bovine brain microtubule protein (MTP). The data set is described as follows: Tubulin polymerization inhibition assay (turbidimetry). Particulars: 1.5 mg/mL MTP; IC50 calculated only if more than 50% inhibition at 20 µM; read-out: TPI IC50. In kind it is biochemical. As for the experimental part:
Bovine brain microtubule protein (MTP) was isolated as previously described. Briefly, it was purified according to the modified Shelanski method by two cycles of temperature-dependent assembly/disassembly.
Tubulin polymerization was monitored using a Helios α spectrophotometer by measuring the increase in turbidity at 450 nm, caused by a shift from 4 °C to 37 °C, which allows the in vitro MTP self-disassembly and assembly respectively. […] Firstly, ligands at 20 µM concentration, were incubated with 1.5 mg/mL MTP at 20 °C for 30 min and subsequently cooled on ice for 10 min. Then, the experiment starts at 4 °C to establish the initial baseline. The assembly process was initiated by shifting of the temperature to 37 °C and the turbidity produced can be measured by an absorbance increase. After reaching a stable plateau, the temperature was switched back to 4 °C to return to the initial absorption values. The difference in amplitude between the stable plateau and the initial baseline of the curves was taken as the degree of tubulin polymerization for each experiment. […] All the measurements were carried out in at least two independent experiments using MTP from different isolation.

Data set [4] relates to HeLa, HT-29 and MCF-7 human tumor cell lines. Put plainly: Antiproliferative activity over the three human tumor cell lines (MTT). The class given is cell-based. Particulars: range over the cell lines, Table S1, read-out: Cytotoxicity range (range of antiproliferative IC50 values). The procedure: as §1
The antiproliferative activity of the compounds against three human tumor cell lines of different origins (i.e., HeLa cervix epithelioid carcinoma, HT-29 colon adenocarcinoma and MCF-7 breast adenocarcinoma) was evaluated by the MTT method. […] This high success rate is the result of a combination of favorable scaffolds and substituents, and it is similar to those of previous reports on related series. […] We have previously observed the same trend for related compounds acting at the colchicine site of tubulin [10, 23]. For this pyridine series, we observed a different potency trend when we compare the 4-amino-3-pyridine and the 3-amino-4-pyridine derivatives. […] This different behavior is probably a reflection of their different shape, combined with the different geometries imposed by different bridges. We have previously shown that the potency ordering isocombretastatins similar to oximes higher than benzophenones could be explained by the higher conjugation of the ketones with the aromatic rings, which imposes a more planar disposition than those required for high affinity colchicine site binding. For the 3-amino-4-pyridine series, more planar structures are required in order to avoid the bumping of the amino substituents with tubulin out the plane of the aromatic ring, an effect which we have previously shown to impact the potency of 3-substituted indolecombretastatins and dimethylaminophenyl phenstatins. This different geometrical disposition of the amino substituents, and the different adaptability of their corresponding pockets in the two series, can also account for the preference of bulkier substituents at position 3, such as the pyrrolidine rather than the smaller dimethylamino. […] The opposite is observed for the 4-dimethylaminophenyl phenstatins 1a and 1b. […] The remarkable levels of solubility achieved for the quaternary ammonium salts came unfortunately at the expenses of biological activity.
The effect of the different compounds on the proliferation of human cell lines was determined by using the MTT (3-[4,5-dimethylthiazol-2-yl]-2,5-diphenyltetrazolium bromide) reagent (MTT Thiazolyl Blue Tetrazolium Bromide, Sigma-Aldrich, St. Louis, MO, USA) dissolved in PBS 5 mg/mL. Cell viability was evaluated seeding 100 µL of cells in exponential growth phase with appropriate cell line concentration (1.5 × 10^4 HeLa and MCF-7 cells/mL and 3 × 10^4 HT-29 cells/mL) in complete medium in 96-well plates at 37 °C and 5% CO2. After 24 h incubation to allow cells to attach to the plates the ligands were added at different concentrations from 10^−5 to 10^−9 M. The effect on the proliferation was evaluated 72 h post-treatment by adding the MTT reagent (10 µL/well) to a final concentration of 0.5 mg/mL and the plate was further incubated for another 3 h. […]

`C=C(c1ccc(N(C)C)cc1)c1cc(OC)ccc1OC` [Compound 3e, 4-(1-(2,5-Dimethoxyphenyl)vinyl)-N,N-dimethylaniline]: the 50% inhibitory concentration (IC50) in data set [1] was above 1000 nM; in data set [2], above 1000 nM; in data set [3], above 20000 nM; in data set [4] (Homo sapiens), above 1000 nM.
As for `COc1cc(C(=NO)c2ccnc(N(C)C)c2)cc(OC)c1OC` [Compound Z-2g, (2-(Dimethylamino)pyridin-4-yl)(3,4,5-trimethoxyphenyl)methanone oxime], in data set [4], the IC50 was in the range of 407 to 3330 nM.
Turning to `COc1ccc(OC)c(C(C)c2ccc(N(C)C)cc2)c1` (stereo not shown) [Compound 4e, 4-(1-(2,5-Dimethoxyphenyl)ethyl)-N,N-dimethylaniline], the IC50 was above 1000 nM in data set [1], above 1000 nM in data set [2], above 20000 nM in data set [3] and above 1000 nM in data set [4] (Homo sapiens).
Regarding `COc1cc(C=Cc2ccc(N3CCCC3)nc2)cc(OC)c1OC` [Compound 8c, 2-(Pyrrolidin-1-yl)-5-(3,4,5-trimethoxystyryl)pyridine], the IC50 in data set [1] was above 1000 nM; in data set [2], above 1000 nM; in data set [3], above 20000 nM; in data set [4] (Homo sapiens), above 1000 nM.
Consider `COc1cc(C(=NO)c2cccc(N(C)C)c2)cc(OC)c1OC` [Compound Z-2f, (3-(Dimethylamino)phenyl)(3,4,5-trimethoxyphenyl)methanone oxime], for which, in data set [4], the IC50 is above 1000 nM.
`COc1ccc(C(C)c2ccc(N(C)C)cc2)c(OC)c1OC` (stereo not shown) [Compound 4d, N,N-Dimethyl-4-(1-(2,3,4-trimethoxyphenyl)ethyl)aniline]: the IC50 in data set [1] is above 1000 nM; in data set [2] it was above 1000 nM; in data set [3], above 20000 nM; in data set [4] (Homo sapiens), above 1000 nM.
`COc1cc(C(=NO)c2cccc(N(C)C)c2)cc(OC)c1OC` [Compound E-2f, (3-(Dimethylamino)phenyl)(3,4,5-trimethoxyphenyl)methanone oxime]: in data set [4] (Homo sapiens), the IC50 was above 1000 nM.
For `COc1cc(C(=O)c2ccc([N+](C)(C)C)cc2)cc(OC)c1OC` [Compound 5a, N,N,N-Trimethyl-4-(3,4,5-trimethoxybenzoyl)benzenaminiumiodide], the IC50 in data set [1] was above 1000 nM; in data set [2] it was above 1000 nM; in data set [3], above 20000 nM; in data set [4] (Homo sapiens) it was above 1000 nM.
With `COc1cc(C(=NO)c2ccc([N+](C)(C)C)cc2)cc(OC)c1OC` [Compound E-6a, 4-((Hydroxyimino)(3,4,5-trimethoxyphenyl)methyl)-N,N,N-trimethylbenzenaminium iodide], the IC50 in data set [4] (Homo sapiens) was above 1000 nM.
As to `COc1cc(C(=NO)c2ccc(N3CCCC3)nc2)cc(OC)c1OC` [Compound E-2c, (6-(Pyrrolidin-1-yl)pyridin-3-yl)(3,4,5-trimethoxyphenyl)methanone oxime], the IC50 in data set [4] is above 1000 nM.
In the case of `COc1ccc(OC)c(C(=O)c2ccc(N(C)C)cc2)c1` [Compound 1e, (2,5-dimethoxyphenyl)(4-(dimethylamino)phenyl)methanone], the IC50 in data set [1] was above 1000 nM; in data set [2] it was above 1000 nM; in data set [3] it was above 20000 nM; in data set [4] (Homo sapiens), above 1000 nM.
As for `COc1ccc(C(=NO)c2ccc(N(C)C)cc2)c(OC)c1OC` [Compound E-2d, (4-(Dimethylamino)phenyl)(2,3,4-trimethoxyphenyl)methanone oxime], in data set [4] (Homo sapiens), the half-inhibitory concentration (IC50) was 277 to 677 nM.
For the molecule `COc1cc(C(=NO)c2ccc(N3CCCC3)nc2)cc(OC)c1OC` [Compound 2c, (6-(Pyrrolidin-1-yl)pyridin-3-yl)(3,4,5-trimethoxyphenyl)methanone oxime], the IC50 in data set [1] was above 1000 nM; in data set [2], above 1000 nM; in data set [3], above 20000 nM.
With `COc1cc(C=Cc2ccc([N+]3(C)CCCC3)cc2)cc(OC)c1OC` [Compound 9i, 1-Methyl-1-(4-(3,4,5-trimethoxystyryl)phenyl)pyrrolidin-1-ium iodide], the IC50 in data set [1] and in data set [2] was above 1000 nM each time.
Take `COc1ccc(OC)c(C(=NO)c2ccc(N(C)C)cc2)c1` [Compound 2e, (2,5-Dimethoxyphenyl)(4-(dimethylamino)phenyl)methanone oxime]: the IC50 in data set [1] is above 1000 nM; in data set [2], above 1000 nM; in data set [3], above 20000 nM.
As for `COc1ccc(OC)c(C(=NO)c2ccc(N(C)C)cc2)c1` [Compound Z-2e, (2,5-Dimethoxyphenyl)(4-(dimethylamino)phenyl)methanone oxime], the IC50 in data set [4] was above 1000 nM.
As to `COc1cc(C(=NO)c2ccc(N3CCCC3)nc2)cc(OC)c1OC` [Compound Z-2c, (6-(Pyrrolidin-1-yl)pyridin-3-yl)(3,4,5-trimethoxyphenyl)methanone oxime], in data set [4] (heading: Cytotoxicity range), the IC50 was above 1000 nM.
In the case of `COc1cc(C(=NO)c2ccc([N+](C)(C)C)cc2)cc(OC)c1OC` [Compound Z-6a, 4-((Hydroxyimino)(3,4,5-trimethoxyphenyl)methyl)-N,N,N-trimethylbenzenaminium iodide], the IC50 in data set [4] was above 1000 nM.
In the case of `COc1cc(C(=NO)c2ccnc(N(C)C)c2)cc(OC)c1OC` [Compound E-2g, (2-(Dimethylamino)pyridin-4-yl)(3,4,5-trimethoxyphenyl)methanone oxime], in data set [4] (Homo sapiens), the IC50 fell in the range of 407 to 3330 nM.
Same read-out and setting: the same measure for `COc1ccc(OC)c(C(=NO)c2ccc(N(C)C)cc2)c1` [Compound E-2e, (2,5-Dimethoxyphenyl)(4-(dimethylamino)phenyl)methanone oxime]: above 1000 nM.
